The text below walks through data of BindingDB's records for doi:10.1016/j.bmcl.2004.07.023 (North Dakota State University, 2004).

The experiment deals with T1, Interstitial collagenase (Homo sapiens, UniProt P03956).
T1 sequence (P03956 whole entry): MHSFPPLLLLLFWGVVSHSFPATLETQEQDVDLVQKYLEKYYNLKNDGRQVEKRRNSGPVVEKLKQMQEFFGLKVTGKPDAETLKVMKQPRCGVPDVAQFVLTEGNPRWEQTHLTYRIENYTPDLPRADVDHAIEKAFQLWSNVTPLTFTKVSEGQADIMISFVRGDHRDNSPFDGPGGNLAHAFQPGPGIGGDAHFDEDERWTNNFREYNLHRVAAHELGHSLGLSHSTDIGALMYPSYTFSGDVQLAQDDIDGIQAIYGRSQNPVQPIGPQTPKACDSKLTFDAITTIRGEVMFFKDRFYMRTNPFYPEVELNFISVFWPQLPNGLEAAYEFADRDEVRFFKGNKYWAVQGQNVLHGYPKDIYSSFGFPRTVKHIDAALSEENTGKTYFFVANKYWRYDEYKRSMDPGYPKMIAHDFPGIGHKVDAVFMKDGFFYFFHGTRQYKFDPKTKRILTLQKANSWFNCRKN
Kind of experiment: Inhibitory activity against matrix metalloprotease-1; No activity upto solubility limit.

Where only a bound is given, the exact number is not on record here.

With `C=C[C@@H]1OC(c2ccc(Br)cc2)=N[C@H]1Sc1ccccc1` [(4S,5S)-2-(4-Bromo-phenyl)-4-phenylsulfanyl-5-vinyl-4,5-dihydro-oxazole], the Ki (as a rule, a dissociation constant, usually derived from enzyme kinetics or from competition with a known ligand) is greater than 30 µM.
